Key:
[1] = molecular target: T1, Adenosine receptor A3 (Homo sapiens, UniProt P0DMS8); type: cell membranes, CHO-K1, Membrane;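 further: radioligand binding assay with AB-MECA serving as the labeled ligand; in other assays of this panel Not Active means under 50% inhibition at 10 µM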
T1 sequence (P0DMS8 whole entry): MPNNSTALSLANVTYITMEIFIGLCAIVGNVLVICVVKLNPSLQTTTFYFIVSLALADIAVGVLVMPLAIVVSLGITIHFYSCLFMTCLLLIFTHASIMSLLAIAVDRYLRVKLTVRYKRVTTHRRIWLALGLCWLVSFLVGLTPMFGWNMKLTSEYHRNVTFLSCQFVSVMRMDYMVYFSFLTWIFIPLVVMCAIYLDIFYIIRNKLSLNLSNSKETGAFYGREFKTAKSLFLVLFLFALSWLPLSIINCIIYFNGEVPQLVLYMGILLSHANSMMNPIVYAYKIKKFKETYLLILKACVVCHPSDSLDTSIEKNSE

[2] = molecular target: Matrix metalloproteinase-9 (Homo sapiens, UniProt P14780); test: biochemical; type: cell-based;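 further: inhibition of isolated MMP-9 enzyme activity toward a synthetic peptide substrate, from the DrugMatrix protease screening panel; in other assays of this panel Not Active means under 50% inhibition at 10 µM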
Matrix metalloproteinase-9, sequence (P14780 whole entry): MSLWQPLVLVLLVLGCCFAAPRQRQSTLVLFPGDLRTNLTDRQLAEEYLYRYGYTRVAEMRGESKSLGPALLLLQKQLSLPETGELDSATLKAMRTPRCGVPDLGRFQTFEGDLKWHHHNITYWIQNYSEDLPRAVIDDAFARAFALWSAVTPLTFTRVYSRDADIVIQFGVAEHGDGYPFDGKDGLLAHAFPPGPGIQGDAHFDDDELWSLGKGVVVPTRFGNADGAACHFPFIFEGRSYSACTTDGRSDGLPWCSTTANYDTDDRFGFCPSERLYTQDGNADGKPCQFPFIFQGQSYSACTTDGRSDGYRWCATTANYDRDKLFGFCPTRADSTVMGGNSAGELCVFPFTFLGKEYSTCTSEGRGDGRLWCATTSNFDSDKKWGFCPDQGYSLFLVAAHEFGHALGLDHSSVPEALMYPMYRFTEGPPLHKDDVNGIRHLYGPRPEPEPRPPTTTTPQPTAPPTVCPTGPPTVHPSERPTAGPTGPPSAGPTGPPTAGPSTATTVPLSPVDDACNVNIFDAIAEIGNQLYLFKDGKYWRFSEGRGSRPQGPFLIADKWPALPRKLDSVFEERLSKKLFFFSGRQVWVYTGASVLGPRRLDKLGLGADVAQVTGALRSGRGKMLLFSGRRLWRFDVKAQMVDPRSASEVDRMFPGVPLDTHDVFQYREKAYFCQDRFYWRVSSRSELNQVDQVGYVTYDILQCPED

[3] = molecular target: Delta-type opioid receptor (Homo sapiens, UniProt P41143); type: cell membranes, HEK293, Membrane; further: in other assays of this panel Not Active means under 50% inhibition at 10 µM
Delta-type opioid receptor, sequence (P41143 whole entry): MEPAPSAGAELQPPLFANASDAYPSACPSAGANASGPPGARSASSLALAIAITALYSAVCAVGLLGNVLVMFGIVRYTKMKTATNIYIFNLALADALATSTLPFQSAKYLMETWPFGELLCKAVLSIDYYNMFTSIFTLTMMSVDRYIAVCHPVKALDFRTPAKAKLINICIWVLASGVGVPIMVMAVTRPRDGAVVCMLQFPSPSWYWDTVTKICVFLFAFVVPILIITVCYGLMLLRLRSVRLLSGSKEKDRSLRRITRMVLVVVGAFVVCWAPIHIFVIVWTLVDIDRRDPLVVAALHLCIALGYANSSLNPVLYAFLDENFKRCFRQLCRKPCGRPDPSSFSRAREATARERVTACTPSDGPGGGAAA

[4] = molecular target: T2, Cytochrome P450 2A6 (Homo sapiens, UniProt P11509); settings: bti-tn-5b1-4; further: in other assays of this panel Not Active means under 50% inhibition at 10 µM
T2 sequence (P11509 whole entry): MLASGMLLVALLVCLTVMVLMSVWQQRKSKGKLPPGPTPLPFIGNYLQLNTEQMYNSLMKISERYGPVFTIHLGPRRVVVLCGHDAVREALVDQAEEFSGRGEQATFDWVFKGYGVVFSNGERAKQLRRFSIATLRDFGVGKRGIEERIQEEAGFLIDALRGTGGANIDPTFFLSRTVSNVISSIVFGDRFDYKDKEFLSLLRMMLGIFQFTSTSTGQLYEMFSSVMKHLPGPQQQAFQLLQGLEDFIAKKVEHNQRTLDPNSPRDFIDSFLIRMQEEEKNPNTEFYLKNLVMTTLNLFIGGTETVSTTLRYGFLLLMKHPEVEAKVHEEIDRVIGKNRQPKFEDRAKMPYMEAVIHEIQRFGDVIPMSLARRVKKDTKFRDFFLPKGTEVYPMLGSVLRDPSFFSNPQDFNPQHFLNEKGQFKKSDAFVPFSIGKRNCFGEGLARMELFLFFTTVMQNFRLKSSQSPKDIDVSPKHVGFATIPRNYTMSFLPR

[5] = molecular target: Tyrosine-protein kinase Lck (Homo sapiens, UniProt P06239); test: DRUGMATRIX: Protein Tyrosine Kinase, LCK enzyme inhibition (substrate: Poly(Glu:Tyr)); type: cell-based, Insect cells; settings: Not Active = under 50% inhibition at 10 µM
Tyrosine-protein kinase Lck, sequence (P06239 whole entry): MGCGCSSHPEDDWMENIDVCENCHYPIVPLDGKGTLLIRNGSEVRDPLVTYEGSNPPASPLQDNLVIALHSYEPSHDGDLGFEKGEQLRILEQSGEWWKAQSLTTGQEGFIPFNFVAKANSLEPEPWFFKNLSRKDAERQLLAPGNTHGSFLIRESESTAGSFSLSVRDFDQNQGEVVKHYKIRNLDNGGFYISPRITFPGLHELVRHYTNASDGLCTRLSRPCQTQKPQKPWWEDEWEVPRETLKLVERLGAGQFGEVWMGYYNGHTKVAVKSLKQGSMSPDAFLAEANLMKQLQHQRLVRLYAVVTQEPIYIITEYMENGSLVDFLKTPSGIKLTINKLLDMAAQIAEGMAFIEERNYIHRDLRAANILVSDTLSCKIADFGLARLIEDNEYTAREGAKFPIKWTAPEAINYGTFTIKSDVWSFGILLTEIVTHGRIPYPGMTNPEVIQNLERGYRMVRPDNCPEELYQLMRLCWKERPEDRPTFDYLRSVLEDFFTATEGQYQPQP

[6] = molecular target: Insulin receptor (Rattus norvegicus, UniProt P15127); type: cell membranes, Wistar, Liver, Membrane; further: in other assays of this panel Not Active means under 50% inhibition at 10 µM
Insulin receptor, sequence (P15127 27-759 limits assumed): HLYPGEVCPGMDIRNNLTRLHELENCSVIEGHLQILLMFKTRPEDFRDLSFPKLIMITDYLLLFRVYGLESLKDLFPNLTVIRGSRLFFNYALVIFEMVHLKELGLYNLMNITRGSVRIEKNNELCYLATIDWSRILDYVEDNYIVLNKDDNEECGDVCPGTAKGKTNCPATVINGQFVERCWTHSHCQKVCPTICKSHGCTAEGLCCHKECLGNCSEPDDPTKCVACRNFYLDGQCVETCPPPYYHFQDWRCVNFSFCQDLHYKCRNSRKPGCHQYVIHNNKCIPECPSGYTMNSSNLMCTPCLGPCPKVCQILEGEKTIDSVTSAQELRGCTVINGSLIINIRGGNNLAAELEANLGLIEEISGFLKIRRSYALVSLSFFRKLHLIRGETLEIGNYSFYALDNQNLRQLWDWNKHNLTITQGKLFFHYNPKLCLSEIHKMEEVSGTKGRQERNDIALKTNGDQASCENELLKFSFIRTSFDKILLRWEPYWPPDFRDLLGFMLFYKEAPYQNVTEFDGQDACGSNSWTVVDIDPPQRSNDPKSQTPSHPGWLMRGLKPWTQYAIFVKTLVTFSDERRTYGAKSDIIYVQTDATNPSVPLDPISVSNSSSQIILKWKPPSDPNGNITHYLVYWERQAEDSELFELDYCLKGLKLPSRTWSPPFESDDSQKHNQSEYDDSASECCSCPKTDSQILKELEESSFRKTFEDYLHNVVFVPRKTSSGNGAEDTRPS
Insulin receptor, sequence (P15127 764-1383 limits assumed): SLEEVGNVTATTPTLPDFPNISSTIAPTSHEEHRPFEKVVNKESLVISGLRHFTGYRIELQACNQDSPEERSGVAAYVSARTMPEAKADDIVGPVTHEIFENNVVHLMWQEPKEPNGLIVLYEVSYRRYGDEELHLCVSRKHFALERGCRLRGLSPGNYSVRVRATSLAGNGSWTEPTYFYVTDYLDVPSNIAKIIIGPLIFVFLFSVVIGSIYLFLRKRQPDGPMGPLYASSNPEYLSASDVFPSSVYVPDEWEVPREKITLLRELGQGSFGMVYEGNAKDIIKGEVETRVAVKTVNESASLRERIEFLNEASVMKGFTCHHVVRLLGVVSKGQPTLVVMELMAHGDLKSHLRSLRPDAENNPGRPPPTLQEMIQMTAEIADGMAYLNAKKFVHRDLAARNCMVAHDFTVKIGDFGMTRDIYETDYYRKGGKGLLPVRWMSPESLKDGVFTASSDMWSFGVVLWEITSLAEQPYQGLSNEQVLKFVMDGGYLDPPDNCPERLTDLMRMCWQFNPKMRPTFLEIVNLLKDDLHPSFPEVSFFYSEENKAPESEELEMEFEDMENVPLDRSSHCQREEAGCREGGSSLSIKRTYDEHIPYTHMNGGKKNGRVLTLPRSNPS

| Compound | IC50 ([1]; cho-k1) | IC50 [2] | IC50 ([3]; hek293) | IC50 [4] | Ki [4] | IC50 ([5]; insect cells) | IC50 [6] | IC50 ([1]; read-out: IC50) [µM] | Ki ([1]; read-out: Ki) [µM] | IC50 ([2]; read-out: IC50) [µM] | IC50 ([3]; read-out: IC50) [µM] | Ki ([3]; read-out: Ki) [µM] | IC50 ([5]; read-out: IC50) [µM] | Ki ([1]; cho-k1) | Ki [2] | Ki ([3]; hek293) | Ki ([5]; insect cells) | Ki [6] |
| --- | --- | --- | --- | --- | --- | --- | --- | --- | --- | --- | --- | --- | --- | --- | --- | --- | --- | --- |
| COc1c(C)c2c(c(O)c1C/C=C(\C)CCC(=O)O)C(=O)OC2 [MYCOPHENOLIC ACID] | Not Active | Not Active | Not Active | Not Active | Not Active | Not Active | Not Active |  |  |  |  |  |  |  |  |  |  |  |
| O=c1ncn2nc(Sc3ccc(F)cc3F)ccc2c1-c1c(Cl)cccc1Cl [NEFLAMAPIMOD] |  | Not Active | Not Active | Not Active | Not Active | Not Active | Not Active | 8.55 | 4.83 |  |  |  |  |  |  |  |  |  |
| CN1CCN(CCCN2c3ccccc3Sc3ccc(Cl)cc32)CC1 [PROCHLORPERAZINE] | Not Active | Not Active | Not Active | Not Active | Not Active | Not Active | Not Active |  |  |  |  |  |  |  |  |  |  |  |
| CO[C@H]1/C=C/O[C@@]2(C)Oc3c(C)c(O)c4c(O)c(c(/C=N/N5CCN(C)CC5)c(O)c4c3C2=O)NC(=O)/C(C)=C\C=C\[C@H](C)[C@H](O)[C@@H](C)[C@@H](O)[C@@H](C)[C@H](OC(C)=O)[C@@H]1C [RIFAMPIN] | Not Active | Not Active | Not Active | Not Active | Not Active | Not Active | Not Active |  |  |  |  |  |  |  |  |  |  |  |
| Cc1nc2n(c(=O)c1CCN1CCC(c3noc4cc(F)ccc34)CC1)CCCC2 [RISPERIDONE] | Not Active | Not Active | Not Active | Not Active | Not Active | Not Active | Not Active |  |  |  |  |  |  |  |  |  |  |  |
| C=CCC1(C(C)CCC)C(=O)NC(=O)NC1=O (stereo not given) [SECOBARBITAL] | Not Active |  | Not Active | Not Active | Not Active | Not Active | Not Active |  |  | 2.64 |  |  |  |  |  |  |  |  |
| C[C@@H]1CN(c2c(F)c(N)c3c(=O)c(C(=O)O)cn(C4CC4)c3c2F)C[C@H](C)N1 [SPARFLOXACIN] | Not Active | Not Active | Not Active | Not Active | Not Active | Not Active | Not Active |  |  |  |  |  |  |  |  |  |  |  |
| Cc1noc(NS(=O)(=O)c2ccc(N)cc2)c1C [SULFISOXAZOLE] | Not Active | Not Active | Not Active | Not Active | Not Active | Not Active | Not Active |  |  |  |  |  |  |  |  |  |  |  |
| CSc1ccc(/C=C2/C(C)=C(CC(=O)O)c3cc(F)ccc32)cc1 [SULINDAC SULFIDE] |  | Not Active | Not Active | Not Active | Not Active | Not Active | Not Active | 7.23 | 4.09 |  |  |  |  |  |  |  |  |  |
| Nc1c2c(nc3ccccc13)CCCC2 [TACRINE] | Not Active | Not Active | Not Active | Not Active | Not Active | Not Active | Not Active |  |  |  |  |  |  |  |  |  |  |  |
| CC/C(=C(\c1ccccc1)c1ccc(OCCN(C)C)cc1)c1ccccc1 [TAMOXIFEN] |  | Not Active |  | Not Active | Not Active |  | Not Active | 3.7 | 2.09 |  | 13.3 | 4.7 | 8.03 |  |  |  |  |  |
| CC(C)N1CCN(c2ccc(OCC3COC(Cn4cncn4)(c4ccc(Cl)cc4Cl)O3)cc2)CC1 (stereo not given) [TERCONAZOLE] | Not Active | Not Active | Not Active | Not Active | Not Active | Not Active | Not Active |  |  |  |  |  |  |  |  |  |  |  |
| Nc1nc2nc[nH]c2c(=S)[nH]1 [THIOGUANINE] |  | Not Active | Not Active | Not Active | Not Active | Not Active | Not Active | 21.7 | 12.3 |  |  |  |  |  |  |  |  |  |
| Cc1cccc(N(C)C(=S)Oc2ccc3ccccc3c2)c1 [TOLNAFTATE] | Not Active | Not Active | Not Active | Not Active | Not Active | Not Active | Not Active |  |  |  |  |  |  |  |  |  |  |  |
| NC[C@H]1CC[C@H](C(=O)O)CC1 [TRANEXAMIC ACID] | Not Active | Not Active | Not Active | Not Active | Not Active | Not Active | Not Active |  |  |  |  |  |  |  |  |  |  |  |
| CC1(C)O[C@@H]2C[C@H]3[C@@H]4CCC5=CC(=O)C=C[C@]5(C)[C@@]4(F)[C@@H](O)C[C@]3(C)[C@]2(C(=O)CO)O1 [TRIAMCINOLONE ACETONIDE] | Not Active | Not Active | Not Active | Not Active | Not Active | Not Active | Not Active |  |  |  |  |  |  |  |  |  |  |  |
| NS(=O)(=O)c1cc2c(cc1Cl)NC(C(Cl)Cl)NS2(=O)=O (stereo not given) [TRICHLORMETHIAZIDE] | Not Active | Not Active | Not Active | Not Active | Not Active | Not Active | Not Active |  |  |  |  |  |  |  |  |  |  |  |
| Cc1c(C)c2c(c(C)c1O)CCC(C)(COc1ccc(CC3SC(=O)NC3=O)cc1)O2 (stereo not given) [TROGLITAZONE] |  | Not Active | Not Active | Not Active | Not Active | Not Active | Not Active | 5.21 | 2.94 |  |  |  |  |  |  |  |  |  |
| N#CC(C#N)=Cc1ccc(O)c(O)c1 [TYRPHOSTIN 23] | Not Active | Not Active | Not Active | Not Active | Not Active | Not Active | Not Active |  |  |  |  |  |  |  |  |  |  |  |
| CC[C@]1(O)C[C@H]2CN(CCc3c([nH]c4ccccc34)[C@@](C(=O)OC)(c3cc4c(cc3OC)N(C=O)[C@H]3[C@@](O)(C(=O)OC)[C@H](OC(C)=O)[C@]5(CC)C=CCN6CC[C@]43[C@@H]65)C2)C1 [VINCRISTINE] | Not Active | Not Active | Not Active | Not Active | Not Active | Not Active | Not Active |  |  |  |  |  |  |  |  |  |  |  |
| CCCOc1ccccc1-c1nc2nn[nH]c2c(=O)[nH]1 [ZAPRINAST] | Not Active | Not Active | Not Active | Not Active | Not Active | Not Active | Not Active |  |  |  |  |  |  |  |  |  |  |  |
| SODIUM NITROPRUSSIDE | Not Active | Not Active | Not Active | Not Active | Not Active | Not Active | Not Active |  |  |  |  |  |  | Not Active | Not Active | Not Active | Not Active | Not Active |

Reference: ChEMBL document CHEMBL1909046, “DrugMatrix in vitro pharmacology data”
